Assay results: ChEMBL document CHEMBL1122324, “New antihypertensive cannabinoids” (1983)

Tests used:
Conditions in all cases: route oral
Rattus norvegicus [1] = test: percentage decrease in heart rate after 4 hr at a dose of 100 mg/kg administered perorally in rats; type: functional
Rattus norvegicus [2] = test: Percentage decrease in systolic blood pressure after 4 hr at 100 mg/kg administered perorally in rats; type: functional, Artery
Rattus norvegicus [3] = test: Percentage decrease in systolic blood pressure (heart rate) after 4 hr at 100 mg/kg administered perorally in rats; type: functional, Artery
Rattus norvegicus [4] = test: Percentage decrease in systolic blood pressure (heart rate) after 4 hr at 30 mg/kg administered perorally in rats; type: functional, Artery
Rattus norvegicus [5] = test: percentage decrease in heart rate after 4 hr at a dose of 30 mg/kg administered perorally in rats; type: functional
Rattus norvegicus [6] = test: percentage decrease in heart rate after 24 hr at a dose of 30 mg/kg administered perorally in rats; type: functional
Rattus norvegicus [7] = test: percentage decrease in heart rate after 24 hr at a dose of 3 mg/kg administered perorally in rats; type: functional
Rattus norvegicus [8] = test: percentage decrease in heart rate after 4 hr at a dose of 10 mg/kg administered perorally in rats; type: functional
Rattus norvegicus [9] = test: percentage decrease in heart rate after 4 hr at a dose of 3 mg/kg administered perorally in rats; type: functional
Rattus norvegicus [10] = test: percentage decrease in heart rate after 6 hr at a dose of 10 mg/kg administered perorally in rats; type: functional
Rattus norvegicus [11] = test: percentage decrease in heart rate after 6 hr at a dose of 30 mg/kg administered perorally in rats; type: functional
Rattus norvegicus [12] = test: percentage decrease in heart rate after 6 hr at a dose of 3 mg/kg administered perorally in rats; type: functional
Rattus norvegicus [13] = test: percentage decrease in heart rate after 1 hr at a dose of 10 mg/kg administered perorally in rats; type: functional
Rattus norvegicus [14] = test: percentage decrease in heart rate after 1 hr at a dose of 30 mg/kg administered perorally in rats; type: functional
Rattus norvegicus [15] = test: percentage decrease in heart rate after 1 hr at a dose of 3 mg/kg administered perorally in rats; type: functional
Rattus norvegicus [16] = test: percentage decrease in heart rate after 24 hr at a dose of 10 mg/kg administered perorally in rats; type: functional
Rattus norvegicus [17] = test: Percentage decrease in systolic blood pressure after 6 hr at 3 mg/kg administered perorally in rats; type: functional, Artery
Rattus norvegicus [18] = test: Percentage decrease in systolic blood pressure after 6 hr at 30 mg/kg administered perorally in rats; type: functional, Artery
Rattus norvegicus [19] = test: Percentage decrease in systolic blood pressure after 1 hr at 30 mg/kg administered perorally in rats; type: functional, Artery
Rattus norvegicus [20] = test: Percentage decrease in systolic blood pressure after 1 hr at 10 mg/kg administered perorally in rats; type: functional, Artery
Rattus norvegicus [21] = test: Percentage decrease in systolic blood pressure after 1 hr at 3 mg/kg administered perorally in rats; type: functional, Artery
Rattus norvegicus [22] = test: Percentage decrease in systolic blood pressure after 24 hr at 10 mg/kg administered perorally in rats; type: functional, Artery
Rattus norvegicus [23] = test: Percentage decrease in systolic blood pressure after 24 hr at 3 mg/kg administered perorally in rats; type: functional, Artery
Rattus norvegicus [24] = test: Percentage decrease in systolic blood pressure after 4 hr at 10 mg/kg administered perorally in rats; type: functional, Artery
Rattus norvegicus [25] = test: Percentage decrease in systolic blood pressure after 24 hr at 30 mg/kg administered perorally in rats; type: functional, Artery
Rattus norvegicus [26] = test: Percentage decrease in systolic blood pressure after 4 hr at 30 mg/kg administered perorally in rats; type: functional, Artery
Rattus norvegicus [27] = test: Percentage decrease in systolic blood pressure after 6 hr at 10 mg/kg administered perorally in rats; type: functional, Artery
Rattus norvegicus [28] = test: Percentage decrease in systolic blood pressure after 4 hr at 3 mg/kg administered perorally in rats; type: functional, Artery
Rattus norvegicus [29] = test: percentage decrease in heart rate after 24 hr at a dose of 30 mg/kg administered perorally in rats.; type: functional
Rattus norvegicus [30] = test: percentage decrease in heart rate after 4 hr at a dose of 30 mg/kg administered perorally in rats.; type: functional
Rattus norvegicus [31] = test: percentage decrease in heart rate after 6 hr at a dose of 30 mg/kg administered perorally in rats.; type: functional
Rattus norvegicus [32] = test: percentage decrease in heart rate after 1 hr at a dose of 30 mg/kg administered perorally in rats.; type: functional
Rattus norvegicus [33] = test: percentage decrease in heart rate after 4 hr at a dose of 10 mg/kg administered perorally in rats.; type: functional
Rattus norvegicus [34] = test: percentage decrease in heart rate after 6 hr at a dose of 10 mg/kg administered perorally in rats.; type: functional
Rattus norvegicus [35] = test: percentage decrease in heart rate after 1 hr at a dose of 10 mg/kg administered perorally in rats.; type: functional
Rattus norvegicus [36] = test: percentage decrease in heart rate after 24 hr at a dose of 10 mg/kg administered perorally in rats.; type: functional

CCCCCC(C)C(C)c1cc(O)c2c(c1)OC(C)(C)C1=C2CN(C(=O)CCCO)CC1 (stereo unspecified)
Heart rate (Rattus norvegicus [1]): 19%
Decrease in Systolic blood pressure (Rattus norvegicus [2]): 0%

CCCCCC(C)C(C)c1cc(O)c2c(c1)OC(C)(C)C1CCN(C(=O)CN3CCCCC3)C=C21 (stereo unspecified)
Heart rate (Rattus norvegicus [1]): -8%
Decrease in Systolic blood pressure (Rattus norvegicus [2]): 10%

CCCCCC(C)C(C)c1cc(O)c2c(c1)OC(C)(C)C1=C2CN(C(=O)CCO)CC1 (stereo unspecified)
Heart rate (Rattus norvegicus [1]): -1%
Decrease in Systolic blood pressure (Rattus norvegicus [2]): 6%

CC(CCCc1ccc(F)cc1)c1cc(O)c2c(c1)OC(C)(C)C1=C2CN(C(=O)CO)CC1 (stereo unspecified)
Heart rate (Rattus norvegicus [1]): 19%
Decrease in Systolic blood pressure (Rattus norvegicus [3]): 8%
Decrease in Systolic blood pressure (Rattus norvegicus [4]): 10%
Heart rate (Rattus norvegicus [5]): 30%

CC(CCCc1ccc(F)cc1)c1cc(O)c2c(c1)OC(C)(C)C1=C2CN(C(=O)CCCO)CC1 (stereo unspecified)
Heart rate (Rattus norvegicus [6]): 15%
Heart rate (Rattus norvegicus [7]): -24%
Heart rate (Rattus norvegicus [1]): 20%
Heart rate (Rattus norvegicus [8]): 18%
Heart rate (Rattus norvegicus [9]): 0%
Heart rate (Rattus norvegicus [10]): 16%
Heart rate (Rattus norvegicus [11]): 9%
Heart rate (Rattus norvegicus [12]): 5%
Heart rate (Rattus norvegicus [13]): 3%
Heart rate (Rattus norvegicus [14]): 2%
Heart rate (Rattus norvegicus [15]): -17%
Heart rate (Rattus norvegicus [16]): 6%
Decrease in Systolic blood pressure (Rattus norvegicus [17]): 9%
Decrease in Systolic blood pressure (Rattus norvegicus [18]): 12%
Decrease in Systolic blood pressure (Rattus norvegicus [19]): 11%
Decrease in Systolic blood pressure (Rattus norvegicus [20]): 11%
Decrease in Systolic blood pressure (Rattus norvegicus [21]): -6%
Decrease in Systolic blood pressure (Rattus norvegicus [22]): 17%
Decrease in Systolic blood pressure (Rattus norvegicus [23]): -8%
Decrease in Systolic blood pressure (Rattus norvegicus [24]): 28%
Decrease in Systolic blood pressure (Rattus norvegicus [25]): 22%
Decrease in Systolic blood pressure (Rattus norvegicus [26]): 26%
Decrease in Systolic blood pressure (Rattus norvegicus [27]): 19%
Decrease in Systolic blood pressure (Rattus norvegicus [28]): 5%
Decrease in Systolic blood pressure (Rattus norvegicus [2]): 32%
Heart rate (Rattus norvegicus [5]): 23%

C#CCN1CCC2=C(C1)c1c(O)cc(C(C)C(C)CCCCC)cc1OC2(C)C (stereo unspecified)
Decrease in Systolic blood pressure (Rattus norvegicus [22]): 27%
Decrease in Systolic blood pressure (Rattus norvegicus [23]): 4%
Decrease in Systolic blood pressure (Rattus norvegicus [24]): 23%
Decrease in Systolic blood pressure (Rattus norvegicus [28]): 7%

CCCCCC(C)C(C)c1cc(O)c2c(c1)OC(C)(C)C1CCN(C(=O)CO)C=C21 (stereo unspecified)
Heart rate (Rattus norvegicus [29]): -1%
Heart rate (Rattus norvegicus [1]): 19%
Heart rate (Rattus norvegicus [30]): -1%
Heart rate (Rattus norvegicus [31]): 1%
Heart rate (Rattus norvegicus [32]): 6%
Decrease in Systolic blood pressure (Rattus norvegicus [18]): 1%
Decrease in Systolic blood pressure (Rattus norvegicus [19]): 2%
Decrease in Systolic blood pressure (Rattus norvegicus [25]): -1%
Decrease in Systolic blood pressure (Rattus norvegicus [26]): -1%
Decrease in Systolic blood pressure (Rattus norvegicus [2]): 49%

CCCCCC(C)C(C)c1cc(O)c2c(c1)OC(C)(C)C1CCN(C(=O)CN)C=C21 (stereo unspecified)
Heart rate (Rattus norvegicus [1]): 7%
Decrease in Systolic blood pressure (Rattus norvegicus [2]): 12%

CCCCCC(C)C(C)c1cc(O)c2c(c1)OC(C)(C)C1=C2CN(C(=O)CN)CC1 (stereo unspecified)
Heart rate (Rattus norvegicus [6]): 10%
Heart rate (Rattus norvegicus [11]): 13%
Heart rate (Rattus norvegicus [14]): 9%
Decrease in Systolic blood pressure (Rattus norvegicus [18]): 8%
Decrease in Systolic blood pressure (Rattus norvegicus [19]): 12%
Decrease in Systolic blood pressure (Rattus norvegicus [25]): 2%
Decrease in Systolic blood pressure (Rattus norvegicus [26]): 10%
Heart rate (Rattus norvegicus [5]): -5%

CCCCCC(C)C(C)c1cc(O)c2c(c1)OC(C)(C)C1=C2CN(C(=O)CN2CCOCC2)CC1 (stereo unspecified)
Heart rate (Rattus norvegicus [29]): 0%
Heart rate (Rattus norvegicus [1]): 37%
Heart rate (Rattus norvegicus [33]): 7%
Heart rate (Rattus norvegicus [30]): 16%
Heart rate (Rattus norvegicus [34]): 11%
Heart rate (Rattus norvegicus [31]): 20%
Heart rate (Rattus norvegicus [35]): -21%
Heart rate (Rattus norvegicus [32]): -2%
Heart rate (Rattus norvegicus [36]): 8%
Decrease in Systolic blood pressure (Rattus norvegicus [18]): 27%
Decrease in Systolic blood pressure (Rattus norvegicus [19]): 10%
Decrease in Systolic blood pressure (Rattus norvegicus [20]): 4%
Decrease in Systolic blood pressure (Rattus norvegicus [22]): 2%
Decrease in Systolic blood pressure (Rattus norvegicus [24]): 8%
Decrease in Systolic blood pressure (Rattus norvegicus [25]): 10%
Decrease in Systolic blood pressure (Rattus norvegicus [26]): 18%
Decrease in Systolic blood pressure (Rattus norvegicus [27]): 3%
Decrease in Systolic blood pressure (Rattus norvegicus [2]): 40%

CCCCCC(C)C(C)c1cc(O)c2c(c1)OC(C)(C)C1CCN(C(=O)CO)CC21 (stereo unspecified)
Heart rate (Rattus norvegicus [1]): 2%
Decrease in Systolic blood pressure (Rattus norvegicus [2]): 0%

CCCCCC(C)C(C)c1cc(OC(=O)COC(C)=O)c2c(c1)OC(C)(C)C1=C2CN(C(=O)COC(C)=O)CC1 (stereo unspecified)
Decrease in Systolic blood pressure (Rattus norvegicus [4]): 10%
